Measured values from PubChem BioAssay AID1963831 (Molecular Pharmacology Branch, DTP, NCI, 2024).

Tested on: 889142-216-R-J1-PDC complex spheroid viability
Test: Anticancer human tumor 889142-216-R-J1-PDC patient-derived bladder carcinoma cell line growth inhibition [POLQ]
Conditions: for IC50: curve of first compound; for viability, T/C: stronger effect = lower value; active means viability on the fitted dose curve at most 10% of control; inactive means the rest
Outline: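 Complex spheroid viability model combining PDC tumour cells with endothelial (HUVEC) and MSC stromal cells. Novobiocin, ART-558 or RP6685 were tested singly and in combination with standard and investigational anticancer drugs. Each was titrated in half-log steps from near clinical Cmax, or from 10 microM where Cmax was unknown.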

[1] = second compound 0.0316 µM, first compound 0.0316 µM
[2] = second compound 0.0316 µM, first compound 0.1 µM
[3] = second compound 0.0316 µM, first compound 0.316 µM
[4] = second compound 0.0316 µM, first compound 1 µM
[5] = second compound 0.0316 µM, first compound 3.16 µM
[6] = second compound 0.0316 µM, first compound 10 µM
[7] = second compound 0.1 µM, first compound 0.0316 µM
[8] = second compound 0.1 µM, first compound 0.1 µM
[9] = second compound 0.1 µM, first compound 0.316 µM
[10] = second compound 0.1 µM, first compound 1 µM
[11] = second compound 0.1 µM, first compound 3.16 µM
[12] = second compound 0.1 µM, first compound 10 µM
[13] = second compound 0.316 µM, first compound 0.0316 µM
[14] = second compound 0.316 µM, first compound 0.1 µM
[15] = second compound 0.316 µM, first compound 0.316 µM
[16] = second compound 0.316 µM, first compound 1 µM
[17] = second compound 0.316 µM, first compound 3.16 µM
[18] = second compound 0.316 µM, first compound 10 µM
[19] = second compound 1 µM, first compound 0.0316 µM
[20] = second compound 1 µM, first compound 0.1 µM
[21] = second compound 1 µM, first compound 0.316 µM
[22] = second compound 1 µM, first compound 1 µM
[23] = second compound 1 µM, first compound 3.16 µM
[24] = second compound 1 µM, first compound 10 µM
[25] = second compound 3.16 µM, first compound 0.0316 µM
[26] = second compound 3.16 µM, first compound 0.1 µM
[27] = second compound 3.16 µM, first compound 0.316 µM
[28] = second compound 3.16 µM, first compound 1 µM
[29] = second compound 3.16 µM, first compound 3.16 µM
[30] = second compound 3.16 µM, first compound 10 µM
[31] = second compound 10 µM, first compound 0.0316 µM
[32] = second compound 10 µM, first compound 0.1 µM
[33] = second compound 10 µM, first compound 0.316 µM
[34] = second compound 10 µM, first compound 1 µM
[35] = second compound 10 µM, first compound 3.16 µM
[36] = second compound 10 µM, first compound 10 µM
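Further: spheroids exposed to compounds for seven days.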
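Wherever viability, T/C is given: 100% = DMSO vehicle control viability.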

CCc1cc2c(N3CCc4c(cc(Cn5ccnc5)cc4-c4cn(C)nc4C(F)(F)F)C3=O)cc(C)nc2c(OC)n1 + COC1C(OC(N)=O)C(O)C(Oc2ccc3c(O)c(NC(=O)c4ccc(O)c(CC=C(C)C)c4)c(=O)oc3c2C)OC1(C)C
> 10 µM: IC50 (second compound 0.0316 µM) | IC50 (second compound 0.1 µM) | IC50 (second compound 0.316 µM) | IC50 (second compound 1 µM) | IC50 (second compound 3.16 µM) | IC50 (second compound 10 µM)
inactive: viability, T/C [1] 112% | viability, T/C [2] 124% | viability, T/C [3] 113% | viability, T/C [4] 97% | viability, T/C [5] 79.9% | viability, T/C [6] 68.6% | viability, T/C [7] 130% | viability, T/C [8] 115% | viability, T/C [9] 101% | viability, T/C [10] 101% | viability, T/C [11] 85.7% | viability, T/C [12] 58.2% | viability, T/C [13] 120% | viability, T/C [14] 132% | viability, T/C [15] 107% | viability, T/C [16] 107% | viability, T/C [17] 92.9% | viability, T/C [18] 67.7% | viability, T/C [19] 126% | viability, T/C [20] 123% | viability, T/C [21] 131% | viability, T/C [22] 105% | viability, T/C [23] 74.4% | viability, T/C [24] 61.9% | viability, T/C [25] 112% | viability, T/C [26] 106% | viability, T/C [27] 137% | viability, T/C [28] 98.4% | viability, T/C [29] 81.9% | viability, T/C [30] 55.1% | viability, T/C [31] 119% | viability, T/C [32] 102% | viability, T/C [33] 111% | viability, T/C [34] 92.2% | viability, T/C [35] 85.8% | viability, T/C [36] 62.8%

COc1cc(C2c3cc4c(cc3C(OC3OC5COC(C)OC5C(O)C3O)C3COC(=O)C23)OCO4)cc(OC)c1O (stereo not drawn) + Nc1ccc(C#CCN(C(=O)Cc2ncc(C(F)(F)F)cc2C(F)(F)F)c2ccc(F)cc2)nn1
8.97 µM: IC50 (second compound 1 µM)
inactive: viability, T/C [1] 90.8% | viability, T/C [2] 92.8% | viability, T/C [3] 86.8% | viability, T/C [4] 60.5% | viability, T/C [5] 96.8% | viability, T/C [6] 62.9% | viability, T/C [7] 99.5% | viability, T/C [8] 101% | viability, T/C [9] 69.3% | viability, T/C [10] 60.2% | viability, T/C [11] 84.5% | viability, T/C [12] 61.5% | viability, T/C [13] 116% | viability, T/C [14] 86.2% | viability, T/C [15] 78.8% | viability, T/C [16] 69% | viability, T/C [17] 79.2% | viability, T/C [18] 54.4% | viability, T/C [19] 121% | viability, T/C [20] 95.6% | viability, T/C [21] 80.5% | viability, T/C [22] 58.2% | viability, T/C [23] 66% | viability, T/C [24] 56.9% | viability, T/C [25] 104% | viability, T/C [26] 78.2% | viability, T/C [27] 72.2% | viability, T/C [28] 59.8% | viability, T/C [29] 68.1% | viability, T/C [30] 61% | viability, T/C [31] 86.7% | viability, T/C [32] 104% | viability, T/C [33] 79.9% | viability, T/C [34] 74.3% | viability, T/C [35] 76.4% | viability, T/C [36] 62.9%
> 10 µM: IC50 (second compound 0.0316 µM) | IC50 (second compound 0.1 µM) | IC50 (second compound 0.316 µM) | IC50 (second compound 3.16 µM) | IC50 (second compound 10 µM)

C#Cc1c(F)ccc2cc(O)cc(-c3ncc4c(N5CC6CCC(C5)N6)nc(OCC56CCCN5CC(F)C6)nc4c3F)c12 (stereo not drawn) + Nc1ccc(C#CCN(C(=O)Cc2ncc(C(F)(F)F)cc2C(F)(F)F)c2ccc(F)cc2)nn1
7.61 µM: IC50 (second compound 10 µM)
> 10 µM: IC50 (second compound 0.0316 µM) | IC50 (second compound 0.316 µM) | IC50 (second compound 1 µM) | IC50 (second compound 3.16 µM)
7.63 µM: IC50 (second compound 0.1 µM)
inactive: viability, T/C [1] 101% | viability, T/C [2] 102% | viability, T/C [3] 75% | viability, T/C [4] 74.6% | viability, T/C [5] 84.8% | viability, T/C [6] 43.9% | viability, T/C [7] 103% | viability, T/C [8] 119% | viability, T/C [9] 85.3% | viability, T/C [10] 79% | viability, T/C [11] 86.6% | viability, T/C [12] 38.9% | viability, T/C [13] 115% | viability, T/C [14] 99.4% | viability, T/C [15] 73.5% | viability, T/C [16] 116% | viability, T/C [17] 69.8% | viability, T/C [18] 49.7% | viability, T/C [19] 115% | viability, T/C [20] 102% | viability, T/C [21] 95.8% | viability, T/C [22] 76.7% | viability, T/C [23] 65.3% | viability, T/C [24] 52.5% | viability, T/C [25] 94% | viability, T/C [26] 98.1% | viability, T/C [27] 90.3% | viability, T/C [28] 131% | viability, T/C [29] 70.3% | viability, T/C [30] 63.8% | viability, T/C [31] 120% | viability, T/C [32] 81.6% | viability, T/C [33] 108% | viability, T/C [34] 75.5% | viability, T/C [35] 90.5% | viability, T/C [36] 38.8%

CCc1c2c(nc3ccc(O)cc13)-c1cc3c(c(=O)n1C2)COC(=O)[C@]3(O)CC + Nc1ccc(C#CCN(C(=O)Cc2ncc(C(F)(F)F)cc2C(F)(F)F)c2ccc(F)cc2)nn1
inactive: viability, T/C (second compound 0.0316 µM, first compound 0.00316 µM) 63.1% | viability, T/C (second compound 0.0316 µM, first compound 0.01 µM) 61.6% | viability, T/C [1] 41.2% | viability, T/C [2] 32.9% | viability, T/C [3] 25.2% | viability, T/C [4] 9.02% | viability, T/C (second compound 0.1 µM, first compound 0.00316 µM) 61.2% | viability, T/C (second compound 0.1 µM, first compound 0.01 µM) 51.1% | viability, T/C [7] 44.6% | viability, T/C [8] 34.8% | viability, T/C [9] 30.4% | viability, T/C [10] 8.83% | viability, T/C (second compound 0.316 µM, first compound 0.00316 µM) 66.6% | viability, T/C (second compound 0.316 µM, first compound 0.01 µM) 50% | viability, T/C [13] 38.6% | viability, T/C [14] 34% | viability, T/C [15] 23.9% | viability, T/C [16] 11.5% | viability, T/C (second compound 1 µM, first compound 0.00316 µM) 70% | viability, T/C (second compound 1 µM, first compound 0.01 µM) 46.6% | viability, T/C [19] 41.3% | viability, T/C [20] 30.5% | viability, T/C [21] 23.4% | viability, T/C [22] 11.2% | viability, T/C (second compound 3.16 µM, first compound 0.00316 µM) 59.3% | viability, T/C (second compound 3.16 µM, first compound 0.01 µM) 65.6% | viability, T/C [25] 39.4% | viability, T/C [26] 35.8% | viability, T/C [27] 30.9% | viability, T/C [28] 8.37% | viability, T/C (second compound 10 µM, first compound 0.00316 µM) 57.4% | viability, T/C (second compound 10 µM, first compound 0.01 µM) 52.2% | viability, T/C [31] 41% | viability, T/C [32] 31.6% | viability, T/C [33] 28.3%
0.0117 µM: IC50 (second compound 10 µM)
0.016 µM: IC50 (second compound 0.1 µM)
active: viability, T/C [34] 6.89%
0.0195 µM: IC50 (second compound 0.0316 µM)
0.0224 µM: IC50 (second compound 3.16 µM)
0.0133 µM: IC50 (second compound 0.316 µM)
0.0126 µM: IC50 (second compound 1 µM)
